According to patent publication US11446298B2, “Pyrimidine derivatives” (Idorsia Pharmaceuticals Ltd, priority 2017, dated 2022):

Experiments:
EP4 = molecular target: T1, EP4 (Homo sapiens, UniProt P35408); assay: hEP4 cAMP Assay (BT549 breast cancer cells, HTRF cAMP, PGE2 6 nM); type: cell-based; settings: antagonistic activity, PGE2 6 nM (EC80)
T1 construct: BT549 breast cancer cells, express high endogenous EP4 levels and very low EP2 levels; host or cells: BT549 breast cancer cells
Protocol: (§1) The antagonistic activities of the compounds of formula (I) on the EP2 and EP4 receptors are also determined in accordance with the following experimental method.
(§2) Human tumor cell lines expressing endogenously either EP4 or EP2 are used and cAMP accumulation in cells upon PGE2 stimulation is monitored. SF295 glioblastoma cells express high endogenous EP2 and no EP4, whereas BT549 breast cancer cells, express high endogenous EP4 levels and very low EP2 levels.
(§3) As a detection method for cAMP the HTRF (homogeneous time resolved fluorescence) Cisbio kit (HTRF cAMP dynamic 2 kit 20′000 tests Cisbio Cat. #62AM4PEC) was used, which is based on a competitive immunoassay using a Cryptate-labeled anti-cAMP antibody and d2-labeled cAMP. Native cAMP produced by cells or unlabeled cAMP (for the standard curve) compete with exogenously added d2-labeled cAMP (acceptor) for binding to monoclonal anti-cAMP-Eu3+Cryptate (donor). A FRET signal (Fluorescence Resonance Energy Transfer) is obtained only if the labeled anti-cAMP antibody binds the d2 labelled cAMP, thus the specific signal (i.e. energy transfer) is inversely proportional to the concentration of cAMP in the standard or sample.
(§4) The BT549 cells (NCI/No. 0507282) are detached from culture dishes with a cell dissociation buffer (Invitrogen, 13151-014), and collected in growing medium (GM: RPMI1640 (Invitrogen 21875)/10% FCS, 1% Penicilin/streptomycin). Cells are counted washed and resuspended in assay buffer (AB; HBSS, 20 mM HEPES, 0.2% BSA; 2 mM IBMX). 4′000 cells in 5 μL of AB are seeded per well of a small volume 384 well plate (black with flat bottom, Greiner 784076).
(§5) Stock solutions of test compounds are made at a concentration of 10 mM in DMSO, and serially diluted in DMSO to concentrations required for inhibition dose response curves (tested concentration range 30 μM-0.4 nM; 30 μM-0.015 nM or 1 μM-0.01 nM).
PGE2 (Cayman 14010, stock solution: 6 uM in DMSO) is used as agonist at 6 nM final concentration, corresponding to EC80.
(§6) 2.5 μL of diluted compounds are transferred into the assay plate. Plate is pre-incubated 45 minutes at room temperature. Subsequently, 2.5 μL of PGE2 (final conc. 6 nM) are transferred into the assay plate. Plate is incubated 30 minutes at room temperature. 5 μL of each donor (anti-cAMP cryptate) and acceptor (cAMP-d2) are added and the plate is incubated another hour at room temperature in the dark and then read using a BMG LABTECH PHERAstar reader (Excitation: 337 nm, Emission: 620 and 665 nm).
(§7) The obtained Delta F (fluorescence) values (665 nm/620 nM) are converted into % cAMP values using the measurements of the cAMP calibrator provided in the kit. For each compound concentration the percentage of cAMP compared to DMSO control value as average ±STDEV (each concentration is measured in duplicate) is calculated.
(§8) IC50 values and curves are generated with XLfit software (IDBS) using Dose-Response One Site model 203. When compounds were measured multiple times, mean values are given.

EP2 = molecular target: T2, EP2 (Homo sapiens, UniProt P43116); assay: hEP2 cAMP Assay (SF295 glioblastoma cells, HTRF cAMP, PGE2 75 nM); type: cell-based; settings: antagonistic activity, PGE2 75 nM (EC80)
T2 construct: SF295 glioblastoma cells express high endogenous EP2 and no EP4; host or cells: SF295 glioblastoma cells
Protocol: as §1, §2, §3
as §4, with “SF295” for “BT549”, “0503170)” for “0507282)”, “RPM11640” for “RPMI1640”
as §5
PGE2 (Cayman 14010, stock solution: 75 μM in DMSO) is used as agonist at 75 nM final concentration, corresponding to EC80.
as §6, with “conc. 75” for “conc. 6”, “temperature. Five” for “temperature. 5”
as §7, §8

T2 sequence (P43116 whole entry): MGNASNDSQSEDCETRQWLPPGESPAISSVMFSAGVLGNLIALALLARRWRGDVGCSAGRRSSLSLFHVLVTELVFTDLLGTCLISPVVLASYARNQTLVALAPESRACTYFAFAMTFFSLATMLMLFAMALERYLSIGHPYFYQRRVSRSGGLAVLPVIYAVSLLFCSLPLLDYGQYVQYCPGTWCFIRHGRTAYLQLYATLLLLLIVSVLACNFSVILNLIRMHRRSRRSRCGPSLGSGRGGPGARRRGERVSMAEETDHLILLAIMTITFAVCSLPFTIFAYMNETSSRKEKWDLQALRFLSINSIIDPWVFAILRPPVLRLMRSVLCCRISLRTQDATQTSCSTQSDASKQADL
T1 sequence (P35408 whole entry): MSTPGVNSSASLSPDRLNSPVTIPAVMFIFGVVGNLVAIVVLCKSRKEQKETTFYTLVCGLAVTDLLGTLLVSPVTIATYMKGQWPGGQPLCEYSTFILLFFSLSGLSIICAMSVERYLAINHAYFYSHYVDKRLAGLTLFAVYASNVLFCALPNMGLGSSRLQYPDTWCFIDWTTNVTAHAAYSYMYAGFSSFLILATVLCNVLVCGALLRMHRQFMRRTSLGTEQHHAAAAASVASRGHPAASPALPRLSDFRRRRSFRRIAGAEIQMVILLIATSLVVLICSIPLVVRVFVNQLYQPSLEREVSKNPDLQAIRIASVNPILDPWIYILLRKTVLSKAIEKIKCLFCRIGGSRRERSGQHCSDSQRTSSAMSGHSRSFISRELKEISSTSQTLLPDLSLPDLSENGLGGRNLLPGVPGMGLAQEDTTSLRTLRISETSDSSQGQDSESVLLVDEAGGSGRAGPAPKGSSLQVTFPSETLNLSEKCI

| Compound | IC50 (EP4) | IC50 (EP2) |
| --- | --- | --- |
| COc1ccc(CCNc2cc(-c3ccc(C(=O)O)c(OC4CCC4)c3)ncn2)c2ccccc12 [Example 58, 2-Cyclobutoxy-4-{6-[2-(4-methoxy-naphthalen-1-yl)-ethylamino]-pyrimidin-4-yl}-benzoic acid] | 0.401 µM | 0.825 µM |
| O=C(O)c1ccc(-c2cc(NCCc3cccc4cccnc34)ncn2)cc1OC1CCC1 [Example 22, 2-Cyclobutoxy-4-[6-(2-quinolin-8-yl-ethylamino)-pyrimidin-4-yl]-benzoic acid] | 0.613 µM | 0.949 µM |
| COc1ccc2c(c1CCNc1cc(-c3ccc(C(=O)O)c(OC4CCC4)c3)ncn1)OCO2 [Example 43, 2-Cyclobutoxy-4-{6-[2-(5-methoxy-benzo[1,3]dioxol-4-yl)-ethylamino]-pyrimidin-4-yl}-benzoic acid] | 0.797 µM | 0.252 µM |
| CCOc1cc(-c2cc(NCCc3cc(OC)cc4ccccc34)ncn2)ccc1C(=O)O [Example 40, 2-Ethoxy-4-{6-[2-(3-methoxy-naphthalen-1-yl)-ethylamino]-pyrimidin-4-yl}-benzoic acid] | 0.853 µM | 0.525 µM |
| CCOc1cc(-c2cc(NCCc3cccc4ccoc34)ncn2)ccc1OCC(=O)O [Example 51] | 0.853 µM | 0.473 µM |
| CCOc1cc(-c2cc(NCCc3c(Br)ccc4ccccc34)ncn2)sc1C(=O)O [Example 10, 5-{6-[2-(2-Bromo-naphthalen-1-yl)-ethylamino]-pyrimidin-4-yl}-3-ethoxy-thiophene-2-carboxylic acid] | 0.022 µM | 0.005 µM |
| CCCOc1ccc2ccccc2c1CCNc1cc(-c2cc(OCC)c(C(=O)O)s2)ncn1 [Example 38, 3-Ethoxy-5-{6-[2-(2-propoxy-naphthalen-1-yl)-ethylamino]-pyrimidin-4-yl}-thiophene-2-carboxylic acid] | 0.048 µM | 0.022 µM |
| COc1cc(CCNc2cc(-c3ccc(C(=O)O)c(OC4CCC4)c3)ncn2)c2ccccc2c1 [Example 41, 2-Cyclobutoxy-4-{6-[2-(3-methoxy-naphthalen-1-yl)-ethylamino]-pyrimidin-4-yl}-benzoic acid] | 0.711 µM | 0.297 µM |
| CCOc1cc(-c2cc(NCCc3c(C)c(C)cc4ccccc34)ncn2)ccc1C(=O)O [Example 11, 4-{6-[2-(2,3-Dimethyl-naphthalen-1-yl)-ethylamino]-pyrimidin-4-yl}-2-ethoxy-benzoic acid] | 0.885 µM | 0.261 µM |
| COc1ccc2c(OC)cccc2c1CCNc1cc(-c2ccc(C(=O)O)c(OC3CCC3)c2)ncn1 [Example 52, 2-Cyclobutoxy-4-{6-[2-(2,5-dimethoxy-naphthalen-1-yl)-ethylamino]-pyrimidin-4-yl}-benzoic acid] | 0.758 µM | 0.779 µM |
| 5-{6-[2-(6-Fluoro-2-methoxy-quinolin-8-yl)-ethylamino]-pyrimidin-4-yl}-3-trifluoromethyl-thiophene-2-carboxylic acid [Example 153] | 0.283 µM | 0.438 µM |
| CCOc1cc(-c2cc(NCCc3cccc4ccn(C)c34)ncn2)ccc1OCC(=O)O [Example 50, (2-Ethoxy-4-{6-[2-(1-methyl-1H-indol-7-yl)-ethylamino]-pyrimidin-4-yl}-phenoxy)-acetic acid] | 0.631 µM | 0.399 µM |
| CCOc1cc(-c2cc(NCCc3cccc4c3OCO4)ncn2)sc1C(=O)O [Example 36, 5-[6-(2-Benzo[1,3]dioxol-4-yl-ethylamino)-pyrimidin-4-yl]-3-ethoxy-thiophene-2-carboxylic acid] | 0.368 µM | 0.262 µM |

More lines, now with the values ahead:

| IC50 (EP4) | IC50 (EP2) | Compound |
| --- | --- | --- |
| 0.452 µM | 0.726 µM | CCOc1cc(-c2cc(NCCc3cccc4sccc34)ncn2)ccc1OCC(=O)O [Example 109] |
| 0.3 µM | 0.829 µM | CCOc1cc(-c2cc(NCCc3c(OC)ccc4c(OC)cccc34)ncn2)ccc1OCC(=O)O [Example 55, (4-{6-[2-(2,5-Dimethoxy-naphthalen-1-yl)-ethylamino]-pyrimidin-4-yl}-2-ethoxy-phenoxy)-acetic acid] |
| 0.597 µM | 0.878 µM | CCOc1cc(-c2cc(NCCc3cccc4sccc34)ncn2)ccc1CC(=O)O [Example 110, {4-[6-(2-Benzo[b]thiophen-4-yl-ethylamino)-pyrimidin-4-yl]-2-ethoxy-phenyl}-acetic acid] |
| 0.321 µM | 0.524 µM | COc1ccc2cccc(CCNc3cc(-c4cc(C(F)(F)F)c(C(=O)O)s4)ncn3)c2n1 [Example 150, 5-{6-[2-(2-Methoxy-quinolin-8-yl)-ethylamino]-pyrimidin-4-yl}-3-trifluoromethyl-thiophene-2-carboxylic Acid] |
| 0.42 µM | 0.878 µM | CCOc1cc(-c2cc(NCCc3c(OC)ccc4c(OC)cccc34)ncn2)ccc1C(=O)O [Example 54, 4-{6-[2-(2,5-Dimethoxy-naphthalen-1-yl)-ethylamino]-pyrimidin-4-yl}-2-ethoxy-benzoic acid] |
| 0.867 µM | 0.258 µM | CCOc1cc(-c2cc(NCCc3cccc4sccc34)ncn2)ccc1C(=O)O [Example 106, 4-[6-(2-Benzo[b]thiophen-4-yl-ethylamino)-pyrimidin-4-yl]-2-ethoxy-benzoic acid] |
| 0.889 µM | 0.976 µM | CCOc1cc(-c2cc(NCCc3cccc4cc(C)oc34)ncn2)ccc1OCC(=O)O [Example 75, (2-Ethoxy-4-{6-[2-(2-methyl-benzofuran-7-yl)-ethylamino]-pyrimidin-4-yl}-phenoxy)-acetic acid] |
| 0.051 µM | 0.007 µM | COc1ccc2ccccc2c1CCNc1cc(-c2cc(OCCO)c(C(=O)O)s2)ncn1 [Example 156, 3-(2-Hydroxy-ethoxy)-5-{6-[2-(2-methoxy-naphthalen-1-yl)-ethylamino]-pyrimidin-4-yl}-thiophene-2-carboxylic acid] |
| 0.962 µM | 0.508 µM | CCOc1cc(-c2cc(NCCc3cccc4cc(C)n(C)c34)ncn2)ccc1OCC(=O)O [Example 57, (4-{6-[2-(1,2-Dimethyl-1H-indol-7-yl)-ethylamino]-pyrimidin-4-yl}-2-ethoxy-phenoxy)-acetic acid] |
| 0.335 µM | 0.354 µM | CCNC(=O)Nc1ccc(-c2cc(NCCc3c(OC)ccc4ncccc34)ncn2)cc1OC [Example 98, 1-Ethyl-3-(2-methoxy-4-{6-[2-(6-methoxy-quinolin-5-yl)-ethylamino]-pyrimidin-4-yl}-phenyl)-urea] |
| 0.403 µM | 0.418 µM | CCOc1cc(-c2cc(NCCc3cccc4ccccc34)ncn2)ccc1OCC(=O)O [Example 77] |
| 0.96 µM | 0.987 µM | O=C(O)c1sc(-c2cc(NCCc3cccc4cccnc34)ncn2)cc1C(F)(F)F [Example 82, 5-[6-(2-Quinolin-8-yl-ethylamino)-pyrimidin-4-yl]-3-trifluoromethyl-thiophene-2-carboxylic acid] |
| 0.384 µM | 0.845 µM | CCOc1cc(-c2cc(NCCc3ccc(OC)c4ccccc34)ncn2)ccc1OCC(=O)O [Example 60, (2-Ethoxy-4-{6-[2-(4-methoxy-naphthalen-1-yl)-ethylamino]-pyrimidin-4-yl}-phenoxy)-acetic acid] |
